One assay has as its target PI3Kalpha (Homo sapiens (Human), UniProt P42336). In words: Inhibition of PI3Kalpha-induced PIP-2 phosphorylation (filter-binding assay). It counts as biochemical. The conditions noted are these: 33P-ATP, p85alpha/His-p110alpha, read-out: IC50 PI3Kα. The method in brief:
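Radiometric filter-binding assay: PI3Kα (25 ng/well) preincubated 20 min at room temperature with compound and PIP2-containing lipid vesicles plus phosphotyrosine PDGFRβ peptide. Reaction started with cold ATP (1 μM final) and [33P]-ATP and run 120 min at room temperature; filter-captured radioactivity counted, IC50 from duplicate dilution series.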

The test system of a further assay is H460 cells. In words: alamarBlue H460 cell assay (antiproliferative/cytotoxicity). It counts as cell-based. Particulars: NCI-H460; H460 human lung carcinoma cells. A digest of the protocol: (§1)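 Seed cells, incubate overnight 37 °C CO2; add cpds (final 10 μM, 1:3 serial, 10 steps, duplicates); incubate 5-6 d; alamarBlue 8 h 37 °C; fluorescence ex 530-560/em 590 nm; blank-subtracted EC50.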

A further assay deals with MCF7 cells. In words: alamarBlue MCF7 cell assay (antiproliferative/cytotoxicity). The class given is cell-based. Particulars: MCF7 human breast cancer cell line. A digest of the protocol:
as §1

The test system of the next assay is BT474 cells. In words: alamarBlue BT474 cell assay (antiproliferative/cytotoxicity). The class given is cell-based. The conditions noted are these: BT-474 human breast cancer cell line. A digest of the protocol:
as §1

The subject of a further assay is U87 cells. In words: U87 cell assay (antiproliferative/cytotoxicity). It counts as cell-based. The conditions noted are these: U-87MG human glioblastoma cells. A digest of the protocol: as §1
A further assay deals with MB453 cells. Nature of the assay: alamarBlue MB453 cell assay (antiproliferative/cytotoxicity). It counts as cell-based. The conditions noted are these: Homo sapiens; MDA MB 453 breast cancer cell line. The method in brief: as §1

pEC50, pIC50: −log10 of the molar value.

PI3Kalpha, sequence (P42336 whole entry): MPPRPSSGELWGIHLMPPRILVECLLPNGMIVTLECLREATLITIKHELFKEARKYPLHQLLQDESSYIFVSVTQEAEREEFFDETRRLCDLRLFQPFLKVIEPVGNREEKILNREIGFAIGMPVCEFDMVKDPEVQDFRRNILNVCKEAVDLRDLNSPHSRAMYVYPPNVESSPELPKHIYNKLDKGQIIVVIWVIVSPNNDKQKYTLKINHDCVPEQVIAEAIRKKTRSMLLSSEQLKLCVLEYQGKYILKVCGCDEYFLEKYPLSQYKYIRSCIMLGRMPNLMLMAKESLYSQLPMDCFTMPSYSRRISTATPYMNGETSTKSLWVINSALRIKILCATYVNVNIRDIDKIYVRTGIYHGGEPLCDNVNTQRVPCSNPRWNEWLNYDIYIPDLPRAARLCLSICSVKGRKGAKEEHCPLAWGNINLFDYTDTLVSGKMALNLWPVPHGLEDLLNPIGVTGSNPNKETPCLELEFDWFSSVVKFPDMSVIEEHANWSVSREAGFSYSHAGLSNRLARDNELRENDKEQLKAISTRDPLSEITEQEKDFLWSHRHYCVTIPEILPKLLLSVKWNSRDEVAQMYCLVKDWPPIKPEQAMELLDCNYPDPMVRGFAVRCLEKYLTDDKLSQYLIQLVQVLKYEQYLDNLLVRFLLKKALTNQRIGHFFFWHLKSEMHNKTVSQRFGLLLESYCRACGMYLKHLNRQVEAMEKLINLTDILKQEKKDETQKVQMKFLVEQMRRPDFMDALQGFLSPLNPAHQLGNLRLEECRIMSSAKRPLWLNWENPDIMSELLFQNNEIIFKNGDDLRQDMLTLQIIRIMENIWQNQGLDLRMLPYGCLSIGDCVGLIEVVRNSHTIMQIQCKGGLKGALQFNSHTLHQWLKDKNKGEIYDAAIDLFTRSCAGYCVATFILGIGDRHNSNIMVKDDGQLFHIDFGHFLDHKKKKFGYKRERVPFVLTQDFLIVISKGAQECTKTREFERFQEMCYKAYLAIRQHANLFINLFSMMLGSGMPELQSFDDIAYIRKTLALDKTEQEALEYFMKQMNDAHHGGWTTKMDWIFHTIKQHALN

Consider `Cc1ncc(C#Cc2c(C)ncnc2N2CCN(C)C(=O)C2)cc1NS(=O)(=O)c1ccccc1` [Example I-60, N-{2-Methyl-5-[4-methyl-6-(4-methyl-3-oxo-piperazin-1-yl)-pyrimidin-5-ylethynyl]-pyridin-3-yl}-benzenesulfonamide], for which the pIC50 on PI3Kalpha is 8.70. The negative logarithm of the EC50 (pEC50) with H460 cells was 5.90; with MCF7 cells it was 6.99; with BT474 cells it was 5.81; in the assay with U87 cells, 6.02; in the assay with MB453 cells, 6.21.

Regarding `CCc1ncnc(N2CCOCC2)c1C#Cc1cnc(OC)c(NS(=O)(=O)c2ccc(F)cc2F)c1` [Example I-25, N-[5-(4-Ethyl-6-morpholin-4-yl-pyrimidin-5-ylethynyl)-2-methoxy-pyridin-3-yl]-2,4-difluoro-benzenesulfonamide], at PI3Kalpha, the negative logarithm of the IC50 (pIC50) was 9.20. The pEC50 with H460 cells is 7.82; with MCF7 cells, 7.96; in the assay with BT474 cells, 7.66; with U87 cells, 6.98; in the assay on MB453 cells it was 7.34.

In the case of `CC(=O)N1CCN(c2ncnc(C)c2C#Cc2cnc(C)c(NS(=O)(=O)c3ccc(F)cc3F)c2)CC1` [Example I-17, N-{5-[4-(4-Acetyl-piperazin-1-yl)-6-methyl-pyrimidin-5-ylethynyl]-2-methyl-pyridin-3-yl}-2,4-difluoro-benzenesulfonamide], at PI3Kalpha, the pIC50 is 9.10. The negative-log EC50 (pEC50) in the assay with H460 cells was 6.02; in the assay with MCF7 cells it was 7.14; in the assay with BT474 cells, 6.45; with U87 cells it was 5.72; with MB453 cells, 6.28.
